Test results published in patent US11718589B2, “Compositions and methods of modulating short-chain dehydrogenase” (CASE WESTERN RESERVE UNIVERSITY, priority 2017, dated 2023).
Like-named read-outs stand apart in the source and are kept apart here.

Molecular target: recombinant 15-PGDH (Homo sapiens (Human), UniProt P15428)
Assay: Enzyme inhibition of recombinant 15-PGDH, in vitro assay
Assay type: biochemical
[1] = recombinant human 15-PGDH, read-out: Enzyme inhibition (IC50)

Sequence of recombinant 15-PGDH (P15428 whole entry): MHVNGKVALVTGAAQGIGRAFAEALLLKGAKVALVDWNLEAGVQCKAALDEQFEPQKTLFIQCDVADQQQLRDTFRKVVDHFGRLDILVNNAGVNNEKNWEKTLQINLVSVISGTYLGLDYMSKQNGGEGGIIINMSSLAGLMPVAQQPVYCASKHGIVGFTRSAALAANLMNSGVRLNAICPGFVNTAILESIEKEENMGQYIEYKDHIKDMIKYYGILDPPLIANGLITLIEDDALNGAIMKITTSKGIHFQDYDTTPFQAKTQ

| SMILES | IC50 [1] [µM] | IC50 [µM] |
| --- | --- | --- |
| CCCC[S+]([O-])c1nc2nc(-c3nccs3)cc(C(F)(F)F)n2n1 (centres unmarked) [50a] | > 2.5 | – |
| O=C(c1ccc2ncc(-c3cccc(F)c3)nc2c1)N1CCCCC1 [41b] | 0.004 to 0.02 | – |
| COc1ccc(-c2cc(C(F)(F)F)n3nc(C(=O)N4CCC(=O)CC4)cc3n2)cc1 [13a] | – | 0.5 to 2.5 |
| O=C(c1ccc2nc(-c3ccccc3)c(-c3cccnc3)nc2c1)N1CCCCC1 [33b] | 0.02 | – |
| CCN(CC)C(=O)c1cc2nc(-c3ccc(OC)cc3)cc(C(F)(F)F)n2n1 [8a] | 0.1 | – |
| COc1ccc(-c2cc(C(F)(F)F)n3nc(C(=O)N4CCCCCC4)cc3n2)cc1 [11a] | 0.0189 | – |
| CNc1cc(-c2ccc(OC)cc2)nc2cc(C(=O)N3CCCCC3)nn12 [31a] | 0.02 to 0.1 | – |
| O=C(c1cc2nc(-c3cccs3)cc(C(F)(F)F)n2n1)N1CCCCC1 [42a] | > 2.5 | – |
| O=C(c1ccc2ncc(-c3ccc(F)cc3F)nc2c1)N1CCCCC1 [45b] | 0.004 | – |
| CCCC[S+]([O-])c1cc2nc(-c3ccc(OC)cc3)cc(-c3ccnn3C)n2n1 (centres unmarked) [72a] | 0.004 to 0.02 | – |
| O=C(c1cc2ncc(-c3ccccc3)cn2n1)N1CCCCC1 [41a] | 0.768 | – |
| COc1ccc(-c2cc(-c3ccncc3)n3nc(C(=O)N4CCCCC4)cc3n2)cc1 [22a] | ~0.1 | – |
| COc1ccc(-c2cc(C(F)(F)F)n3nc(C(=O)N4CCC(CO)CC4)cc3n2)cc1 [16a] | < 0.1 | – |
| O=C(c1cc2nc(-c3ccc(O)cc3)cc(C(F)(F)F)n2n1)N1CCCCC1 [68a] | > 2.5 | – |
| CCCCS(=O)(=O)c1ccc2nc(-c3ccccc3)c(-c3ccccc3)nc2c1 [4b] | > 2.5 | – |
| O=C(c1ccc2ncc(-c3cc(F)cc(F)c3)nc2c1)N1CCCCC1 [47b] | 0.016 | – |
| COc1ccc(-c2cc(C(F)(F)F)n3nc(C(=O)N4CCC(C)CC4)cc3n2)cc1 [18a] | 0.0306 | – |
| COc1ccc(-c2cc(C(F)(F)F)n3nc(C(=O)N4CCCC(C(F)(F)F)C4)cc3n2)cc1 (centres unmarked) [64a] | 0.1 to 0.5 | – |
| COc1ccc(-c2cc(OC)n3nc(C(=O)N4CCCCC4)cc3n2)cc1 [33a] | 0.02 to 0.1 | – |

| SMILES | IC50 [1] [µM] | IC50 [µM] |
| --- | --- | --- |
| COc1ccc(-c2cc(-c3ccncc3Cl)n3nc(C(=O)N4CCCCC4)cc3n2)cc1 [26a] | ~0.5 | – |
| CC1CCCCN1C(=O)c1ccc2nc(-c3ccccc3)c(-c3ccccc3)nc2c1 (centres unmarked) [29b] | 0.1 to 0.5 | – |
| O=C(c1cc2nc(-c3ccccc3)cc(C(F)(F)F)n2n1)N1CCCCC1 [61a] | > 2.5 | – |
| CCCC[S+]([O-])c1nc2nc(-c3ccc(OC)cc3)cc(-c3ccccc3)n2n1 (centres unmarked) [55a] | > 2.5 | – |
| Cn1cc(-c2cc(C(F)(F)F)n3nc(C(=O)N4CCCCC4)cc3n2)cn1 [38a] | > 2.5 | – |
| COc1ccc(-c2cc(C(F)(F)F)n3nc(C(=O)N4CCC(NC(=O)OC(C)(C)C)CC4)cc3n2)cc1 [14a] | 0.1 to 0.5 | – |
| O=C(c1ccc2nc(-c3ccccc3)c(-c3ccc(F)nc3)nc2c1)N1CCCCC1 [35b] | 0.02 to 0.1 | – |
| CCCCSc1ccc2nc(-c3ccccc3)c(-c3ccccc3)nc2c1 [2b] | > 2.5 | – |
| O=C(c1ccc2nc(-c3ccccc3)[nH]c2c1)N1CCCCC1 [32b] | 0.1 to 0.5 | – |
| CNC(=O)c1ccc(-c2cnc3ccc(C(=O)N4CCCCC4)cc3n2)cc1 [80b] | 0.004 | – |
| CCCC[S+]([O-])c1cc2nc(-c3nccs3)cc(C(F)(F)F)n2n1 (centres unmarked) [48a] | 0.02 to 0.1 | – |
| COc1ccc(-c2cc(N(C)C)n3nc(C(=O)N4CCCCC4)cc3n2)cc1 [32a] | 0.0334 | – |
| Cn1cc(-c2nc3cc(C(=O)N4CCCCC4)ccc3nc2-c2ccccc2)cn1 [37b] | 0.02 to 0.1 | – |
| CCCC[S+]([O-])c1nc2nc(-c3ccc(OC)cc3)cc(C(F)(F)F)n2n1 (centres unmarked) [49a] | > 2.5 | – |
| COc1ccc(-c2cc(C(F)(F)F)n3nc(C(=O)N4CCOCC4)cc3n2)cc1 [10a] | 0.1 to 0.5 | – |
| Nc1nc2ccc(-c3cnc4ccc(C(=O)N5CCCCC5)cc4n3)cc2s1 [95b] | < 0.004 | – |
| COc1ccc(-c2cc(C(F)(F)F)n3nc(C(=O)N4CCC(OC)CC4)cc3n2)cc1 [21a] | 0.1 to 0.5 | – |
| O=C(c1cc2nc(-c3nccs3)cc(C(F)(F)F)n2n1)N1CCCCC1 [45a] | 0.014 | – |
| CC(C)(O)Cn1ccc2cc(-c3cnc4ccc(C(=O)N5CCCCC5)cc4n3)ccc2c1=O [89b] | ~0.004 | – |
